Key:
[1] = tested on: CNT1; conditions: for fold increase of content in urine of Slc28a1-/- mice: Slc28a1-/- vs Slc28a1+/+, urine collected over 12 h starvation, 8-week-old mice, n = 6
Procedure: Linearity was established for analytes over the concentration ranges observed and the lower limit of quantification of the LC–MS/MS assay was approximately 0.1 ng/ml for each analyte (Fig. S2).
Standard solutions of all nucleotide targets were serially diluted to generate calibration solutions at concentrations of 0.0, 0.0001, 0.001, 0.01, 0.1, 1.0, and 10 µg/ml. Urine samples were prepared by adding 20 µL of urine solution to 80 µL of 50:50 H2O:MeOH containing internal standard, vortexing and centrifuging at 20,000 × g; then, 50 µL aliquots were placed into glass vials, dried in a SpeedVac and reconstituted in 5% MeOH with 0.1% formic acid for injection.
Samples were quantified using a heated electrospray ionization source (HESI) on a Thermo Scientific TQS Quantiva triple quadrupole mass spectrometer, and separation was achieved using a Thermo Scientific Ultimate 3000 HPLC equipped with an Agilent 120 SB-C18 reversed-phase column (2 × 100 mm, 2.7 µm particle size) maintained at 40 °C. […] For all experiments, the capillary voltage was set to 4.5 kV with a capillary temperature of 350 °C, a vaporizer temperature of 100 °C, a sheath gas flow of 12, an auxiliary gas flow of 13, and a 1.6 sweep gas. For selected reaction monitoring (SRM) mode, Q1 and Q3 were set to 0.7 full width at half maximum (FWHM) resolution, a cycle time of 0.8 s, and a CID gas pressure of 1.5 mTorr.

[2] = Gemcitabine urine pharmacokinetics (renal excretion) in Slc28a1+/+ and Slc28a1-/- mice; conditions: WT and KO mouse urine pooled 10 min to 2 h after dFdC 50 mg/kg i.v.
Procedure: THU was added to the mouse urine samples upon collection and frozen until analysis. […] Five microliters of the diluted samples were transferred to a 96-well autosampler plate then 10 µL of internal standard mixture was added and mixed. […] The plate was then transferred to the 4 °C autosampler for analysis.
The chromatographic separation was performed on a Thermo Accucore aQ 2.6 µm, 100 ×2.1 mm column at 30 °C using a gradient with a 10 µL injection volume. The mobiles phases were 1 mM ammonium acetate in deionized water pH 6.8 and acetonitrile. The total run time was 5.5 min. […] The LC–MS/MS analysis was conducted on a Thermo Vanquish UHPLC with a TSQ Quantiva mass spectrometer equipped with an electrospray ionization source.

[3] = Gemcitabine plasma pharmacokinetics in Slc28a1+/+ and Slc28a1-/- mice; conditions: Slc28a1+/+ and Slc28a1-/- mice; single i.v. dFdC 50 mg/kg

Compound	fold increase of content in urine of Slc28a1-/- mice [1] [fold]	further results
O=c1cc[nH]c(=O)[nH]1 [Uracil]	4.6	–
Nc1ccn([C@@H]2O[C@H](CO)[C@@H](O)[C@H]2O)c(=O)n1 [cytidine]	52.9	–
Nc1ccn([C@@H]2O[C@H](COP(=O)(O)OP(=O)(O)OP(=O)(O)O)[C@@H](O)C2(F)F)c(=O)n1 [dFdC-TP, dFdC triphosphate]	–	level in urine after dFdC dosing [2]: below the limits of quantification; plasma level after dFdC dosing [3]: did not detect appreciable quantities
Nc1nc2c(ncn2[C@H]2C[C@H](O)[C@@H](CO)O2)c(=O)[nH]1 [deoxyguanosine]	–	Concentration in urine ([1]; Slc28a1+/+ and Slc28a1-/- mice, 12 h starvation): undetectable
O=c1ccn([C@H]2C[C@H](O)[C@@H](CO)O2)c(=O)[nH]1 [deoxyuridine]	2.4	–
O=c1ccn([C@@H]2O[C@H](CO)[C@@H](O)[C@H]2O)c(=O)[nH]1 [uridine]	5.9	–
